According to US12630806B2 (priority 2020, dated 2026):
Entries after “also recorded” stand apart in the source; their conditions may differ. Where two headings read alike, the source gives them in different places.

Legend:
[1] = test system: PaLPMO9H; assay: AA7-LPMO synergy assay with PaLPMO9H on PASC or Avicel (HPAEC-PAD); assay type: biochemical, Podospora anserina
[2] = biological target: T1, MoChiO7A, Magnaporthe (anamorph Pyricularia) oryzae 70-15, SEQ ID NO: 21 (Table 2: SEQ ID NO: 35) (Pyricularia oryzae, UniProt G4NAH7); conditions: dehydrogenase assay, 0.1 mM DCIP, 0.1 μM enzyme, 50 mM HEPES pH 7.0, MoChiO7A
[3] = biological target: T1, MoChiO7A, Magnaporthe (anamorph Pyricularia) oryzae 70-15, SEQ ID NO: 21 (Table 2: SEQ ID NO: 35); conditions: oxidase assay, 50 mM NaOAc pH 5.2, MoChiO7A
[4] = biological target: T2, FgChiO7B, Fusarium graminearum, SEQ ID NO: 20 (Table 2: SEQ ID NO: 33) (Fusarium graminearum, UniProt A0ACM8RFH6); conditions: dehydrogenase assay, 0.1 mM DCIP, 0.1 μM enzyme, 50 mM HEPES pH 7.0, FgChiO7B
[5] = biological target: T2, FgChiO7B, Fusarium graminearum, SEQ ID NO: 20 (Table 2: SEQ ID NO: 33); conditions: oxidase assay, 50 mM NaOAc pH 5.2, FgChiO7B
[6] = biological target: T3, FgCelDH7C, Fusarium graminearum PH-1, SEQ ID NO: 1 (Table 2: SEQ ID NO: 31) (Fusarium graminearum, UniProt I1RWY4); conditions: dehydrogenase assay, 0.1 mM DCIP, 0.1 μM enzyme, 50 mM HEPES pH 7.0, FgCelDH7C
[7] = test system: FgAA7D, Fusarium graminearum PH-1, SEQ ID NO: 113; assay type: biochemical; conditions: 150 nM enzyme, 10 mM cellobiose
[8] = biological target: T3, FgCelDH7C, Fusarium graminearum PH-1, SEQ ID NO: 1 (Table 2: SEQ ID NO: 31); assay type: biochemical; conditions: oxidase assay, 20 mM cellobiose; for V0/E: estimated
[9] = biological target: T4, PsAA7A, Phytophthora sojae, SEQ ID NO: 7 (Table 2: SEQ ID NO: 37) (Phytophthora sojae, UniProt G4YI39); assay type: biochemical
T4 sequence (G4YI39 23-504): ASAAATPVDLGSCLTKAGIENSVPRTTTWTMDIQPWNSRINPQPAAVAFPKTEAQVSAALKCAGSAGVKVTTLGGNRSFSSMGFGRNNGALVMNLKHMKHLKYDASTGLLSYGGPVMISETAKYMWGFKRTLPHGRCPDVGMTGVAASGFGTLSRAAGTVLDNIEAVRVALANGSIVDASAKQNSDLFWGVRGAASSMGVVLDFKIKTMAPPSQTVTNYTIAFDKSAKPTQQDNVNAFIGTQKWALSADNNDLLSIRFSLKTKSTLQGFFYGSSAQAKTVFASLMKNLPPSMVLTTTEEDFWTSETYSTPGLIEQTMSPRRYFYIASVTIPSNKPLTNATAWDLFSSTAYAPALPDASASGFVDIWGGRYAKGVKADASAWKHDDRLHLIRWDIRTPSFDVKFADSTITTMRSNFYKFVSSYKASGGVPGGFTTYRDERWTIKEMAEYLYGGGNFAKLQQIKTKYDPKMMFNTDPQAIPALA

[10] = biological target: T4, PsAA7A, Phytophthora sojae, SEQ ID NO: 7 (Table 2: SEQ ID NO: 37); assay type: biochemical; remark: listed apart in the source
[11] = assay type: biochemical; conditions: GalA; V0/E values

For O=C1C=CC(=Nc2cc(Cl)c(O)c(Cl)c2)C=C1 [DCIP, 2,6-dichlorophenolindophenol], the “synergy with PaLPMO9H: released cello-oligosaccharides from PASC” value [1] was “inhibited the observed synergy”.

Molecule CC(=O)N[C@H]1[C@H](O[C@H]2[C@H](O)[C@@H](NC(C)=O)C(O)O[C@@H]2CO)O[C@H](CO)[C@@H](O)[C@@H]1O (some centres unmarked) [Chitobiose, chitobiose] has a kcat [2] of 22.4 ± 0.5 s⁻¹, a kcat [3] of 4.37 ± 0.12 s⁻¹ and a kcat [4] of 29.3 ± 0.41 s⁻¹. It also gave a kcat [5] of 2.27 ± 0.03 s⁻¹.

Work on CC(=O)N[C@H]1[C@H](O[C@H]2[C@H](O)[C@@H](NC(C)=O)C(O)O[C@@H]2CO)O[C@H](CO)[C@@H](O[C@@H]2O[C@H](CO)[C@@H](O)[C@H](O)[C@H]2NC(C)=O)[C@@H]1O (some centres unmarked) [Chitotriose, chitotriose] yielded a kcat [3] of 3.71 ± 0.09 s⁻¹ and a kcat [5] of 6.14 ± 0.29 s⁻¹.

OC[C@H]1O[C@@H](O[C@H]2[C@H](O)[C@@H](O)[C@H](O[C@H]3[C@H](O)[C@@H](O)C(O)O[C@@H]3CO)O[C@@H]2CO)[C@H](O)[C@@H](O)[C@@H]1O (some centres unmarked) [Cellotriose, cellotriose] gave a kcat [6] of 36.1 ± 0.74 s⁻¹.

For OC[C@H]1O[C@@H](O[C@H]2[C@H](O)[C@@H](O)C(O)O[C@@H]2CO)[C@H](O)[C@@H](O)[C@@H]1O (some centres unmarked) [Cellobiose, cellobiose], the kcat [6] was 30.8 ± 0.81 s⁻¹, the Estimated oxidase activity [7] was 0.001 s⁻¹ and the “normalized rate (slope of linear region/E), initial burst” value ([8]; 150 μM enzyme) was 0.00029 s⁻¹. The “reaction rate, second phase” value ([8]; 150 μM enzyme) was 7e-05 s⁻¹, the “normalized rate (slope of linear region/E), initial burst” value ([8]; 500 μM enzyme) was 0.00013 s⁻¹ and the “reaction rate, second phase” value ([8]; 500 μM enzyme) was 4.1e-05 s⁻¹. For the same molecule, the V0/E ([8]; 150 uM enzyme) was “(2.93E−4^c) s^−1” and the V0/E ([8]; 500 uM enzyme) was 1.29E−4^b s^−1.

OC[C@H]1O[C@@H](O[C@H]2[C@H](O)[C@@H](O)[C@H](O[C@H]3[C@H](O)[C@@H](O)[C@H](O[C@H]4[C@H](O)[C@@H](O)C(O)O[C@@H]4CO)O[C@@H]3CO)O[C@@H]2CO)[C@H](O)[C@@H](O)[C@@H]1O (some centres unmarked) [Cellotetraose, cellotetraose] gave a kcat [6] of 39.2 ± 0.76 s⁻¹.

For CC(=O)N[C@H]1C(O)O[C@H](CO)[C@H](O)[C@@H]1O (some centres unmarked) [GalNAc], the kcat [3] was 3.67 ± 0.06 s⁻¹.

In the case of O=C(O)[C@H]1OC(O)[C@H](O)[C@@H](O)[C@H]1O (some centres unmarked) [GalA, galacturonic acid], the V0/E [9] is reported as 1.7E−4^d s^−1, the “oxidase activity estimated from the linear segments after the initial delayed burst” value [9] is reported as 1.7±0.6 ×10^−4 s^−1 and the “dehydrogenase activity (V0/E)” value [10] is reported as 6.4 s⁻¹.

Molecule CC(=O)N[C@H]1C(O)O[C@H](CO)[C@@H](O)[C@@H]1O (some centres unmarked) [GlcNAc] has a kcat [3] of 3.8 ± 0.07 s⁻¹ and a kcat [5] of 6.76 ± 0.31 s⁻¹.

B1: HRP: horseradish peroxidase, captures H2O2 (protein, UniProt P00433 31-338, looked up)
Peroxidase C1A: QLTPTFYDNSCPNVSNIVRDTIVNELRSDPRIAASILRLHFHDCFVNGCDASILLDNTTSFRTEKDAFGNANSARGFPVIDRMKAAVESACPRTVSCADLLTIAAQQSVTLAGGPSWRVPLGRRDSLQAFLDLANANLPAPFFTLPQLKDSFRNVGLNRSSDLVALSGGHTFGKNQCRFIMDRLYNFSNTGLPDPTLNTTYLQTLRGLCPLNGNLSALVDFDLRTPTIFDNKYYVNLEEQKGLIQSDQELFSSPNATDTIPLVRSFANSTQTFFNAFVEAMDRMGNITPLTGTQGQIRLNCRVVNSNS
In the case of B1, the “effect of additive on PaLPMO9H-FgCelDH7C synergy / LPMO activity” value ([1]; Avicel, 18 h at 35° C., HRP or SOD added) is reported as “inhibitory of the LPMO activity; also recorded: abolished the activity”.

B2: PsAA7A: AA7 clade IIb enzyme from Phytophthora sojae, active on glucuronic and galacturonic acid (protein, listed as Phytophthora sojae)
chain: MVSSASSAIFALCSLIAAQSGLASAAATPVDLGSCLTKAGIENSVPRTTTWTMDIQPWNSRINPQPAAVAFPKTEAQVSAALKCAGSAGVKVTTLGGNRSFSSMGFGRNNGALVMNLKHMKHLKYDASTGLLSYGGPVMISETAKYMWGFKRTLPHGRCPDVGMTGVAASGFGTLSRAAGTVLDNIEAVRVALANGSIVDASAKQNSDLFWGVRGAASSMGVVLDFKIKTMAPPSQTVTNYTIAFDKSAKPTQQDNVNAFIGTQKWALSADNNDLLSIRFSLKTKSTLQGFFYGSSAQAKTVFASLMKNLPPSMVLTTTEEDFWTSETYSTPGLIEQTMSPRRYFYIASVTIPSNKPLTNATAWDLFSSTAYAPALPDASASGFVDIWGGRYAKGVKADASAWKHDDRLHLIRWDIRTPSFDVKFADSTITTMRSNFYKFVSSYKASGGVPGGFTTYRDERWTIKEMAEYLYGGGNFAKLQQIKTKYDPKMMFNTDPQAIPALA
modifications: peptide (1)..(504) PsAA7A from Phytophthora sojae - an AA7 enzyme belonging to clade IIb
In the case of B2, the dehydrogenase/oxidase ratio [11] is reported as “about 4×10^4” and the “synergy to LPMO catalyzed degradation of avicel” value ([1]; Avicel 0.5% (w/v), 35° C., 24 h, PaLPMO9H, AA7 with its substrate (cellotetraose or galacturonic acid 0.8 mM)) is reported as “does not (or does only with a far lower extent) confer synergy”.
